Laboratory results reported in US12509424B2, “Compound and composition as PDGF receptor kinase inhibitor” (NIPPON SHINYAKU CO., LTD., priority 2019, dated 2025).

How the values were obtained:
PDGFR-β = PDGFR-β (Homo sapiens (Human), UniProt P09619); experiment: PDGFR-β tyrosine kinase inhibitory action (HTRF KinEASE-TK); assay type: biochemical; settings: PDGFR-β enzyme 1 ng/μL, 30° C. for 30 minutes; read-out: PDGF-β IC50
Outline: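 Recombinant PDGFR-β at 1 ng/μL final with TK substrate-3-biotin in a substrate solution containing 0.6 μM ATP; buffer 50 mM HEPES pH 7.0, 5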

[1] = molecular target: TEL-PDGFRβ fusion gene transfected cells (Ba/F3); experiment: Suppression of proliferation of TEL-PDGFRβ fusion gene transfected Ba/F3 cells; assay type: cell-based, human; settings: TEL-PDGFRβ expressing Ba/F3 cells, 72 hours, final concentration 0.1 to 10,000 nM; read-out: PDGFR β/BaF3 proliferation inhibition (IC50)
TEL-PDGFRβ fusion gene transfected cells (Ba/F3), sequence (P09619 33-1106 limits assumed, change not shown): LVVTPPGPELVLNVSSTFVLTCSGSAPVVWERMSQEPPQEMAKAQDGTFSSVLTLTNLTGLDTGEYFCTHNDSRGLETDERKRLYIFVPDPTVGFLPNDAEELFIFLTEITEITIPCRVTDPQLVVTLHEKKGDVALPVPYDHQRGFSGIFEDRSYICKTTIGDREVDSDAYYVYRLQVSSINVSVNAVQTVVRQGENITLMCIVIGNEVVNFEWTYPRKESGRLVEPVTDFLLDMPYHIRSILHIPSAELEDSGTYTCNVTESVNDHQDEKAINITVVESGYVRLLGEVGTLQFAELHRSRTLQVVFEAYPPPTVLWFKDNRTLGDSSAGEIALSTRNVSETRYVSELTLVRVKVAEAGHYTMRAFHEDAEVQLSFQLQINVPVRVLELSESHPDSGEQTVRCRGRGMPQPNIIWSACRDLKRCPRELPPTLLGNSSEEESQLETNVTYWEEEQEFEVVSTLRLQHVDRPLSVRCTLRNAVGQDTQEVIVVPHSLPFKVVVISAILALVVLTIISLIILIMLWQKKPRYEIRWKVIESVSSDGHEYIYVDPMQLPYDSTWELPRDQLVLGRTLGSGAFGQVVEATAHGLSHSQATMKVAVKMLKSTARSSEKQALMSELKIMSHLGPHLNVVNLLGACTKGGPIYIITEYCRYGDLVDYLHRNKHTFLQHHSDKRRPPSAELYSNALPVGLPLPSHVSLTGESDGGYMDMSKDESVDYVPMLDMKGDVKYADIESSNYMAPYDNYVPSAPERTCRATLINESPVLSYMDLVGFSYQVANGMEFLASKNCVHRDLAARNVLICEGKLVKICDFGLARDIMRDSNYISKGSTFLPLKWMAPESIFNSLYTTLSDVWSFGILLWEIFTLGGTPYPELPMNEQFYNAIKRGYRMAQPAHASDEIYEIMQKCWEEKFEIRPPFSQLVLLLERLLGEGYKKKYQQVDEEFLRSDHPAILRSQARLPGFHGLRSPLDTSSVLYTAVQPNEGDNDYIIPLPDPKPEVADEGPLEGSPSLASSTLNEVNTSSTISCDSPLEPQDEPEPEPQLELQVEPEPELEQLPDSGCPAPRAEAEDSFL
Excerpt: 2. Preparation of Test Substance
4. Analysis of Measurement Results

[2] = test system: pulmonary arterial smooth muscle cells; experiment: Suppression of proliferation of pulmonary arterial smooth muscle cells (PDGF-BB stimulation, BrdU); assay type: cell-based; settings: PASMC, 24 h; healthy human derived pulmonary arterial smooth muscle cells; human PDGF-BB 10 ng/mL stimulation; BrdU uptake after 1 day; test substance final concentration 3 to 10,000 nM; read-out: Human normal PASMC proliferation suppression (PDGF stimulation_IC50)
Outline: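 Test compound (final 3 to 10,000 nM) was added together with BrdU and PDGF-BB (final 10 ng/mL) to healthy human pulmonary artery smooth muscle cells held a day in 0.1% FBS. Proliferation was read after 1 day as anti-BrdU-detected BrdU incorporation.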

[3] = molecular target: TEL-KIT fusion gene transfected cells (Ba/F3); experiment: Suppression of proliferation of TEL-KIT fusion gene transfected Ba/F3 cells; settings: read-out: KIT/BaF3 proliferation inhibition (IC50); TEL-KIT expressing Ba/F3 cells, 72 hours, final concentration 0.1 to 10,000 nM;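 further: viable cells quantified via formazan from tetrazolium reduction, inhibition scaled with 0.1% DMSO control as 0% and medium-only blank as 100%, IC50 from two-parameter logistic fit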
TEL-KIT fusion gene transfected cells (Ba/F3), sequence (P10721 26-976 limits assumed, change not shown): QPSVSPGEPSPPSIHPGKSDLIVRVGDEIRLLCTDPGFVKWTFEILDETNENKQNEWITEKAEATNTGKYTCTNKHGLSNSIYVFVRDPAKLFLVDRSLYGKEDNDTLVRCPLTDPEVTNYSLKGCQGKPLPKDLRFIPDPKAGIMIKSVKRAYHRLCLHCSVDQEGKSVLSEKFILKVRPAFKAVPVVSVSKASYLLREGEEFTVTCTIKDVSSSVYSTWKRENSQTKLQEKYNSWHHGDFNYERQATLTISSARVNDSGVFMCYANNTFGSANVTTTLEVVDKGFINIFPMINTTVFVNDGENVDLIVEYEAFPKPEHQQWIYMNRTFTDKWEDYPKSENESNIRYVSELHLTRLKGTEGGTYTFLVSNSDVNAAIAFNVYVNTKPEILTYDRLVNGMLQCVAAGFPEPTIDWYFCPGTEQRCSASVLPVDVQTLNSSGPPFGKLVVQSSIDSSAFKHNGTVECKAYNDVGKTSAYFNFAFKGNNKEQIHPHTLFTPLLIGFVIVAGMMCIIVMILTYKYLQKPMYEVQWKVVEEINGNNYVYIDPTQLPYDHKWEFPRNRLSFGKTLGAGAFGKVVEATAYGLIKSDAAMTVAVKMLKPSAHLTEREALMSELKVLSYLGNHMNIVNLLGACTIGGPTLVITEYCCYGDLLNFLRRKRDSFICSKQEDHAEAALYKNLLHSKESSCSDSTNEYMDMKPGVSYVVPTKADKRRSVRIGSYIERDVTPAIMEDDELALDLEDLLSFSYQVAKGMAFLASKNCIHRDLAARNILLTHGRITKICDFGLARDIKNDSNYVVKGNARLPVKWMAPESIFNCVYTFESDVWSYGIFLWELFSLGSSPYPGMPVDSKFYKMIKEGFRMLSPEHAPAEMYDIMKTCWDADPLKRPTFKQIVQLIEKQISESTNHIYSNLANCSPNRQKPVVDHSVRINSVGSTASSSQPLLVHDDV
Excerpt: Fabrication of TEL-PDGFRβ and TEL-KIT Fusion Gene Transfected Cells
Subsequently, the vectors for gene transfection were introduced using a transfection reagent (FuGENE6, Promega Corporation) into packaging cells derived from a human fetal kidney cell line, PLAT-E, in the logarithmic growth phase. Since the culture supernatant of PLAT-E after the gene transfection contained virus particles for gene transfection, it was collected and used as a medium for gene transfection. The medium for gene transfection was added to a plate coated with RetroNectin and incubated, and the virus particles were allowed to adhere to the plate. Thereafter, the mouse pro-B cell line Ba/F3 in the logarithmic growth phase was seeded onto the plate and infected with the virus to fabricate cells that proliferate in a PDGFRβ or KIT dependent manner.
The test substance was prepared with dimethyl sulfoxide (DMSO) to 10 mM and diluted with DMSO so as to reach a concentration of 0.0001 to 3 mM. Furthermore, it was diluted by 100 times with distilled water.
Measurement of Suppression Action Against Proliferation of TEL-PDGFRβ or TEL-KIT Expressing Cells
The day after TEL-PDGFRβ and TEL-KIT expressing cells were seeded onto 96 well plates, the prepared test substance solution was added thereto with a final concentration being 0.1 to 10,000 nM. After 72 hours, the viable cell count was measured using the amount of formazan generated from the reduction of a tetrazolium salt compound by the mitochondrial dehydrogenase of viable cells as an indicator.
Based on the amount of formazan in each condition, the suppression rate against cell proliferation was calculated when the amounts of formazan in the negative control (0.1% DMSO solution) and Blank (medium only) were defined as 0% and 100%, respectively. Subsequently, a nonlinear regression analysis with a two parameter logistic model for the log dose and suppression rate against cell proliferation was carried out using the SAS system (SAS Institute Inc.) to estimate the IC50 value.

PDGFR-β, sequence (P09619 33-1106): as the sequence (P09619 33-1106 limits assumed, change not shown) above

Structure (SMILES) | IC50 (PDGFR-β) | IC50 [1] | IC50 [3] | IC50 [2]
Cc1ccc(C(=O)N[C@H]2CCCC[C@@H]2O)cc1Nc1ccnc(-c2cccnc2)n1 [Example 78, N-[(1S,2S)-2-hydroxycyclohexyl]-4-methyl-3-{[2-(pyridin-3-yl)pyrimidin-4-yl]amino}benzamide] | 51 nM | 27 nM | 570 nM | 150 nM
Cc1ccc(C(=O)N[C@H]2CCCC[C@@H]2O)cc1Nc1ccnc(-c2cncc3ccccc23)n1 [Example 79, N-[(1S,2S)-2-hydroxycyclohexyl]-3-{[2-(isoquinolin-4-yl)pyrimidin-4-yl]amino}-4-methylbenzamide] | 120 nM | 46 nM | 2000 nM | 170 nM
Cc1ccc(C(=O)N[C@@H](CO)[C@@H](O)c2ccccc2)cc1Nc1ccnc(-c2cncc3ccccc23)n1 [Example 80, N-[(1S,2S)-1,3-dihydroxy-1-phenylpropan-2-yl]-3-{[2-(isoquinolin-4-yl)pyrimidin-4-yl]amino}-4-methylbenzamide] | 120 nM | 80 nM | > 10000 nM | 280 nM
Cc1c(F)cc(C(=O)N[C@H]2CCCC[C@@H]2O)cc1Nc1cccc(-c2cccnc2)n1 [Example 81, 3-[([2,3′-bipyridin]-6-yl)amino]-5-fluoro-N-[(1S,2S)-2-hydroxycyclohexyl]-4-methylbenzamide] | 190 nM | 140 nM | 3300 nM | 110 nM
Cc1ccc(C(=O)N[C@H]2CCCC[C@@H]2O)cc1N[C@@H](C)c1cncc(-c2ccccc2)c1 [Example 84, N-[(1S,2S)-2-hydroxycyclohexyl]-4-methyl-3-{[(1S)-1-(5-phenylpyridin-3-yl)ethyl]amino}benzamide] | 19 nM | 50 nM | 500 nM | 160 nM
Cc1ccc(C(=O)N[C@H]2CCCC[C@@H]2O)cc1N[C@@H](C)c1cncc(-c2cccnc2)c1 [Example 85, 3-{[(1S)-1-([3,3′-bipyridin]-5-yl)ethyl]amino}-N-[(1S,2S)-2-hydroxycyclohexyl]-4-methylbenzamide] | 180 nM | 19 nM | 4600 nM | 130 nM
Cc1ccc(C(=O)N[C@H]2CCCC[C@@H]2O)cc1N[C@@H](C)c1cncc(-c2ccncc2)c1 [Example 87, 3-{[(1S)-1-([3,4′-bipyridin]-5-yl)ethyl]amino}-N-[(1S,2S)-2-hydroxycyclohexyl]-4-methylbenzamide] | 250 nM | 27 nM | 9900 nM | 350 nM
Cc1ccc(C(=O)N[C@H]2CCCC[C@@H]2O)cc1N[C@@H](C)c1cncc(-c2ncccn2)c1 [Example 88, N-[(1S,2S)-2-hydroxycyclohexyl]-4-methyl-3-({(1S)-1-[5-(pyrimidin-2-yl)pyridin-3-yl]ethyl}amino)benzamide] | 230 nM | 43 nM | 6000 nM | 210 nM
C[C@H](Nc1cc(C(=O)N[C@H]2CCCC[C@@H]2O)ccc1Cl)c1cncc(-c2cccnc2)c1 [Example 90, 3-{[(1S)-1-([3,3′-bipyridin]-5-yl)ethyl]amino}-4-chloro-N-[(1S,2S)-2-hydroxycyclohexyl]benzamide] | 310 nM | 35 nM | 8300 nM | 360 nM
Cc1ccc(C(=O)N[C@H]2CCCC[C@@H]2O)cc1NCc1cncc(-c2ccccc2)c1 [Example 92, N-[(1S,2S)-2-hydroxycyclohexyl]-4-methyl-3-{[(5-phenylpyridin-3-yl)methyl]amino}benzamide] | 46 nM | 20 nM | 1400 nM | 66 nM
Cc1ccc(C(=O)N[C@H]2CCCC[C@@H]2O)cc1NCc1cncc(-c2ncccn2)c1 [Example 95, N-[(1S,2S)-2-hydroxycyclohexyl]-4-methyl-3-({[5-(pyrimidin-2-yl)pyridin-3-yl]methyl}amino)benzamide] | 120 nM | 5.7 nM | 1000 nM | 96 nM
Cc1ccc(C(=O)N[C@H]2CCCC[C@@H]2O)cc1NCc1cnc2ccccc2c1 [Example 96, N-[(1S,2S)-2-hydroxycyclohexyl]-4-methyl-3-{[(quinolin-3-yl)methyl]amino}benzamide] | 200 nM | 12 nM | 310 nM | 72 nM
Cc1ccc(C(=O)N[C@H]2CCCC[C@@H]2O)cc1NCc1cncc(-c2ccc(C(C)(C)N)cc2)c1 [Example 98, 3-[({5-[4-(2-aminopropan-2-yl)phenyl]pyridin-3-yl}methyl)amino]-N-[(1S,2S)-2-hydroxycyclohexyl]-4-methylbenzamide] | 140 nM | 40 nM | > 10000 nM | 160 nM

The next lines start with results.

IC50 (PDGFR-β) | IC50 [1] | IC50 [3] | Structure (SMILES) | IC50 [2]
94 nM | 14 nM | 270 nM | Cc1ccc(C(=O)N[C@H]2CCCC[C@@H]2O)cc1C#Cc1ccc(N)nc1 [Example 65, 3-[(6-aminopyridin-3-yl)ethynyl]-N-[(1S,2S)-2-hydroxycyclohexyl]-4-methylbenzamide] | 60 nM
5.4 nM | 2.5 nM | 100 nM | Cc1ccc(C(=O)N[C@H]2CCCC[C@@H]2O)cc1C#Cc1cncc(-c2ccccn2)c1 [Example 66, 3-[([2,3′-bipyridin]-5′-yl)ethynyl]-N-[(1S,2S)-2-hydroxycyclohexyl]-4-methylbenzamide] | 30 nM
43 nM | 5.2 nM | 300 nM | Cc1ccc(C(=O)N[C@H]2CCCC[C@@H]2O)cc1C#Cc1cncc(C2CC2)c1 [Example 67, 3-[(5-cyclopropylpyridin-3-yl)ethynyl]-N-[(1S,2S)-2-hydroxycyclohexyl]-4-methylbenzamide] | 120 nM
80 nM | 16 nM | 2000 nM | Cc1ccc(C(=O)N[C@H]2CCCC[C@@H]2O)cc1C#Cc1cncc(C2CC2)n1 [Example 68, 3-[(6-cyclopropylpyrazin-2-yl)ethynyl]-N-[(1S,2S)-2-hydroxycyclohexyl]-4-methylbenzamide] | 72 nM
25 nM | 5.8 nM | 330 nM | Cc1ccc(C(=O)N[C@H]2CCCC[C@@H]2O)cc1C#Cc1cncc(-c2ccccc2F)n1 [Example 69, 3-{[6-(2-fluorophenyl)pyrazin-2-yl]ethynyl}-N-[(1S,2S)-2-hydroxycyclohexyl]-4-methylbenzamide] | 61 nM
20 nM | 1.8 nM | 300 nM | Cc1ccc(C(=O)N[C@H]2CCCC[C@@H]2O)cc1C#Cc1cncc(-c2cccc(F)c2)n1 [Example 70, 3-{[6-(3-fluorophenyl)pyrazin-2-yl]ethynyl}-N-[(1S,2S)-2-hydroxycyclohexyl]-4-methylbenzamide] | 50 nM
42 nM | 6 nM | 570 nM | Cc1ccc(C(=O)N[C@H]2CCCC[C@@H]2O)cc1C#Cc1cncc(-c2ccc(F)cc2)n1 [Example 71, 3-{[6-(4-fluorophenyl)pyrazin-2-yl]ethynyl}-N-[(1S,2S)-2-hydroxycyclohexyl]-4-methylbenzamide] | 43 nM
230 nM | 42 nM | 1700 nM | Cc1ccc(C(=O)N[C@H]2CCCC[C@@H]2O)cc1N[C@@H](C)c1cncc(C#Cc2ccccc2)c1 [Example 86, N-[(1S,2S)-2-hydroxycyclohexyl]-4-methyl-3-({(1S)-1-[5-(phenylethynyl)pyridin-3-yl]ethyl}amino)benzamide] | 280 nM
78 nM | 20 nM | 610 nM | Cc1ccc(C(=O)N[C@H]2CCCC[C@@H]2O)cc1N[C@@H](C)c1cncc(-c2ccccn2)c1 [Example 89, 3-{[(1S)-1-([2,3′-bipyridin]-5′-yl)ethyl]amino}-N-[(1S,2S)-2-hydroxycyclohexyl]-4-methylbenzamide] | 190 nM
150 nM | 26 nM | 2700 nM | Cc1ccc(C(=O)N[C@H]2CCCC[C@@H]2O)cc1NCc1cncc(Br)c1 [Example 91, 3-{[(5-bromopyridin-3-yl)methyl]amino}-N-[(1S,2S)-2-hydroxycyclohexyl]-4-methylbenzamide] | 150 nM
49 nM | 10 nM | 260 nM | Cc1ccc(C(=O)N[C@H]2CCCC[C@@H]2O)cc1NCc1cncc(C#CC2CC2)c1 [Example 94, 3-({[5-(cyclopropylethynyl)pyridin-3-yl]methyl}amino)-N-[(1S,2S)-2-hydroxycyclohexyl]-4-methylbenzamide] | 90 nM
100 nM | 20 nM | 1900 nM | Cc1ccc(C(=O)N[C@H]2CCCC[C@@H]2O)cc1NCc1cncc(C#CC2(O)CC2)c1 [Example 97, N-[(1S,2S)-2-hydroxycyclohexyl]-3-[({5-[(1-hydroxycyclopropyl)ethynyl]pyridin-3-yl}methyl)amino]-4-methylbenzamide] | 160 nM
